How the values were obtained:
[1] = tested on: Brassica rapa subsp. chinensis; experiment: whole plant or invertebrate; assay type: functional; conditions: 72 h, read-out: GI
Description: Phytotoxicity against Brassica rapa subsp. chinensis assessed as growth inhibition of hypocotyl at 100 ppm treated to seeds after 3 days

[2] = tested on: Athelia rolfsii; experiment: microbe, parasite or virus in culture; assay type: functional; conditions: Agroathelia rolfsii, read-out: GI
Description: Fungitoxic activity against Athelia rolfsii assessed as mycelial growth inhibition at 100 ppm after 4 to 5 days by agar dilution method

[3] = tested on: Brassica rapa subsp. chinensis; experiment: whole plant or invertebrate; assay type: functional; conditions: 72 h, read-out: GI; remark: listed apart in the source
Description: Phytotoxicity against Brassica rapa subsp. chinensis assessed as growth inhibition of radicle at 100 ppm treated to seeds after 3 days

[4] = tested on: Pythium; experiment: microbe, parasite or virus in culture; assay type: functional; conditions: read-out: GI
Description: Fungitoxic activity against Pythium sp. assessed as mycelial growth inhibition at 100 ppm after 4 to 5 days by agar dilution method

[5] = tested on: Athelia rolfsii; experiment: Fungitoxic activity against Athelia rolfsii assessed as mycelial growth inhibition at 10 ppm after 4 to 5 days by agar dilution method; assay type: functional; conditions: Agroathelia rolfsii; read-out: GI
[6] = tested on: Pythium; experiment: Fungitoxic activity against Pythium sp. assessed as mycelial growth inhibition at 10 ppm after 4 to 5 days by agar dilution method; conditions: read-out: GI

CCCCCCNC(=O)/C=C/c1ccccc1 [N-HEXYLCINNAMAMIDE]
inhibition of growth at 100 ppm [1]: 55% | inhibition of growth at 100 ppm [2]: 91% | inhibition of growth at 100 ppm [3]: 82% | inhibition of growth at 100 ppm [4]: 87% | inhibition of growth at 10 ppm [5]: 32% | inhibition of growth at 10 ppm [6]: 14%

CCC(C)NC(=O)/C=C/c1ccc(C(C)C)cc1 (configuration not stated) [N-SEC-BUTYL-3-(4-ISOPROPYLPHENYL)ACRYLAMIDE]
inhibition of growth at 100 ppm [1]: 29% | inhibition of growth at 100 ppm [2]: 84% | inhibition of growth at 100 ppm [3]: 46% | inhibition of growth at 100 ppm [4]: 73% | inhibition of growth at 10 ppm [5]: 33% | inhibition of growth at 10 ppm [6]: 36%

O=C(/C=C/c1ccc(Cl)cc1)OCCc1ccccc1 [PHENETHYL 3-(4-CHLOROPHENYL)ACRYLATE]
inhibition of growth at 100 ppm [1]: 36% | inhibition of growth at 100 ppm [2]: 84% | inhibition of growth at 100 ppm [3]: 31% | inhibition of growth at 100 ppm [4]: 60% | inhibition of growth at 10 ppm [5]: 9% | inhibition of growth at 10 ppm [6]: 13%

CC(C)c1ccc(/C=C/C(=O)OCCc2ccccc2)cc1 [PHENETHYL 3-(4-ISOPROPYLPHENYL)ACRYLATE]
inhibition of growth at 100 ppm [1]: 36% | inhibition of growth at 100 ppm [2]: 70% | inhibition of growth at 100 ppm [3]: 0% | inhibition of growth at 100 ppm [4]: 49% | inhibition of growth at 10 ppm [5]: 10% | inhibition of growth at 10 ppm [6]: 13%

CCCCOC(=O)/C=C/c1ccccc1 [BUTYL CINNAMATE]
inhibition of growth at 100 ppm [1]: 5% | inhibition of growth at 100 ppm [2]: 42% | inhibition of growth at 100 ppm [3]: 0% | inhibition of growth at 100 ppm [4]: 17%

CCCNC(=O)/C=C/c1ccccc1 [N-PROPYLCINNAMAMIDE]
inhibition of growth at 100 ppm [1]: 15% | inhibition of growth at 100 ppm [2]: 89% | inhibition of growth at 100 ppm [3]: 63% | inhibition of growth at 100 ppm [4]: 54% | inhibition of growth at 10 ppm [5]: 26% | inhibition of growth at 10 ppm [6]: 17%

C=CCc1ccc(OC(=O)/C=C/c2ccc(Cl)cc2)c(OC)c1 [4-ALLYL-2-METHOXYPHENYL 3-(4-CHLOROPHENYL)ACRYLATE]
inhibition of growth at 100 ppm [1]: 38% | inhibition of growth at 100 ppm [2]: 89% | inhibition of growth at 100 ppm [3]: 49% | inhibition of growth at 100 ppm [4]: 89% | inhibition of growth at 10 ppm [5]: 14% | inhibition of growth at 10 ppm [6]: 8%

CC(C)(C)NC(=O)/C=C/c1ccc(Cl)cc1 [N-TERT-BUTYL-3-(4-CHLOROPHENYL)ACRYLAMIDE]
inhibition of growth at 100 ppm [1]: 29% | inhibition of growth at 100 ppm [2]: 71% | inhibition of growth at 100 ppm [3]: 55% | inhibition of growth at 100 ppm [4]: 21% | inhibition of growth at 10 ppm [5]: 60%

CC(C)NC(=O)/C=C/c1ccc(Cl)cc1Cl [3-(2,4-DICHLOROPHENYL)-N-ISOPROPYLACRYLAMIDE]
inhibition of growth at 100 ppm [1]: 11% | inhibition of growth at 100 ppm [2]: 31% | inhibition of growth at 100 ppm [3]: 30% | inhibition of growth at 100 ppm [4]: 28%

O=C(/C=C/c1ccccc1)NCc1ccc(Cl)cc1 [N-(4-CHLOROBENZYL)CINNAMAMIDE]
inhibition of growth at 100 ppm [1]: 6% | inhibition of growth at 100 ppm [2]: 27% | inhibition of growth at 100 ppm [3]: 44% | inhibition of growth at 100 ppm [4]: 33%

CCCNC(=O)/C=C/c1ccc(Cl)cc1Cl [3-(2,4-DICHLOROPHENYL)-N-PROPYLACRYLAMIDE]
inhibition of growth at 100 ppm [1]: 18% | inhibition of growth at 100 ppm [2]: 43% | inhibition of growth at 100 ppm [3]: 26% | inhibition of growth at 100 ppm [4]: 29%

Cc1ccc(OC(=O)/C=C/c2ccc(C(C)C)cc2)c(C(C)C)c1
inhibition of growth at 100 ppm [1]: 39% | inhibition of growth at 100 ppm [2]: 24% | inhibition of growth at 100 ppm [3]: 28% | inhibition of growth at 100 ppm [4]: 15%

CC(C)CNC(=O)/C=C/c1ccc(Cl)cc1Cl [3-(2,4-DICHLOROPHENYL)-N-ISOBUTYLACRYLAMIDE]
inhibition of growth at 100 ppm [1]: 7% | inhibition of growth at 100 ppm [2]: 38% | inhibition of growth at 100 ppm [3]: 43% | inhibition of growth at 100 ppm [4]: 31%

Cc1cccc(NC(=O)/C=C/c2ccccc2)c1C
inhibition of growth at 100 ppm [1]: 32% | inhibition of growth at 100 ppm [2]: 12% | inhibition of growth at 100 ppm [3]: 56% | inhibition of growth at 100 ppm [4]: 16%

CCc1ccccc1NC(=O)/C=C/c1ccccc1
inhibition of growth at 100 ppm [1]: 0% | inhibition of growth at 100 ppm [2]: 19% | inhibition of growth at 100 ppm [3]: 21% | inhibition of growth at 100 ppm [4]: 26%

Cc1ccc(C(C)C)c(OC(=O)/C=C/c2ccc(Cl)cc2Cl)c1
inhibition of growth at 100 ppm [1]: 33% | inhibition of growth at 100 ppm [2]: 33% | inhibition of growth at 100 ppm [3]: 0% | inhibition of growth at 100 ppm [4]: 29%

CCC(C)NC(=O)/C=C/c1ccc(Cl)cc1Cl (configuration not stated) [N-SEC-BUTYL-3-(2,4-DICHLOROPHENYL)ACRYLAMIDE]
inhibition of growth at 100 ppm [1]: 21% | inhibition of growth at 100 ppm [2]: 31% | inhibition of growth at 100 ppm [3]: 41% | inhibition of growth at 100 ppm [4]: 23%

Cc1ccccc1NC(=O)/C=C/c1ccccc1 [N-O-TOLYLCINNAMAMIDE]
inhibition of growth at 100 ppm [1]: 9% | inhibition of growth at 100 ppm [2]: 49% | inhibition of growth at 100 ppm [3]: 39% | inhibition of growth at 100 ppm [4]: 52% | inhibition of growth at 10 ppm [6]: 18%

CC(C)=CCC/C(C)=C/COC(=O)/C=C/c1ccc(Cl)cc1Cl
inhibition of growth at 100 ppm [1]: 26% | inhibition of growth at 100 ppm [2]: 30% | inhibition of growth at 100 ppm [3]: 1% | inhibition of growth at 100 ppm [4]: 24%

CCc1ccc(NC(=O)/C=C/c2ccccc2)cc1
inhibition of growth at 100 ppm [1]: 10% | inhibition of growth at 100 ppm [2]: 53% | inhibition of growth at 100 ppm [3]: 20% | inhibition of growth at 100 ppm [4]: 34%

Cc1ccc(C(C)C)c(OC(=O)/C=C/c2ccc(Cl)cc2)c1
inhibition of growth at 100 ppm [1]: 36% | inhibition of growth at 100 ppm [2]: 39% | inhibition of growth at 100 ppm [3]: 24% | inhibition of growth at 100 ppm [4]: 6%

CCCCCCCCCCCCCCCCNC(=O)/C=C/c1ccccc1 [N-HEXADECYLCINNAMAMIDE]
inhibition of growth at 100 ppm [1]: 20% | inhibition of growth at 100 ppm [2]: 0% | inhibition of growth at 100 ppm [3]: 75% | inhibition of growth at 100 ppm [4]: 12%

CC(C)=CCCC(C)CCOC(=O)/C=C/c1ccc(Cl)cc1Cl (configuration not stated) [3,7-DIMETHYLOCT-6-ENYL 3-(2,4-DICHLOROPHENYL)ACRYLATE]
inhibition of growth at 100 ppm [1]: 25% | inhibition of growth at 100 ppm [2]: 15% | inhibition of growth at 100 ppm [3]: 0% | inhibition of growth at 100 ppm [4]: 0%

CCCCNC(=O)/C=C/c1ccc(Cl)cc1Cl [N-BUTYL-3-(2,4-DICHLOROPHENYL)ACRYLAMIDE]
inhibition of growth at 100 ppm [1]: 17% | inhibition of growth at 100 ppm [2]: 16% | inhibition of growth at 100 ppm [3]: 49% | inhibition of growth at 100 ppm [4]: 9%

Cc1ccc(NC(=O)/C=C/c2ccccc2)cc1 [N-P-TOLYLCINNAMAMIDE]
inhibition of growth at 100 ppm [1]: 24% | inhibition of growth at 100 ppm [2]: 47% | inhibition of growth at 100 ppm [3]: 57% | inhibition of growth at 100 ppm [4]: 59% | inhibition of growth at 10 ppm [6]: 35%

Cc1ccc(C(C)C)c(OC(=O)/C=C/c2ccc(C(C)C)cc2)c1
inhibition of growth at 100 ppm [1]: 42% | inhibition of growth at 100 ppm [2]: 0% | inhibition of growth at 100 ppm [3]: 30% | inhibition of growth at 100 ppm [4]: 2%

O=C(/C=C/c1ccccc1)NCc1ccc(Cl)cc1Cl [N-(2,4-DICHLOROBENZYL)CINNAMAMIDE]
inhibition of growth at 100 ppm [1]: 0% | inhibition of growth at 100 ppm [2]: 51% | inhibition of growth at 100 ppm [3]: 43% | inhibition of growth at 100 ppm [4]: 41%

CCCCCCCCCCNC(=O)/C=C/c1ccccc1
inhibition of growth at 100 ppm [1]: 10% | inhibition of growth at 100 ppm [2]: 23% | inhibition of growth at 100 ppm [3]: 15% | inhibition of growth at 100 ppm [4]: 27%

Cc1ccc(NC(=O)/C=C/c2ccccc2)c(C)c1
inhibition of growth at 100 ppm [1]: 0% | inhibition of growth at 100 ppm [2]: 5% | inhibition of growth at 100 ppm [3]: 0% | inhibition of growth at 100 ppm [4]: 4%

CCCCCCCCCCCCNC(=O)/C=C/c1ccccc1 [N-DODECYLCINNAMAMIDE]
inhibition of growth at 100 ppm [1]: 48% | inhibition of growth at 100 ppm [2]: 13% | inhibition of growth at 100 ppm [3]: 32% | inhibition of growth at 100 ppm [4]: 21%

CCCCCCCCNC(=O)/C=C/c1ccccc1 [N-OCTYLCINNAMAMIDE]
inhibition of growth at 100 ppm [1]: 34% | inhibition of growth at 100 ppm [2]: 46% | inhibition of growth at 100 ppm [3]: 42% | inhibition of growth at 100 ppm [4]: 24%

CC(C)(C)NC(=O)/C=C/c1ccc(Cl)cc1Cl [N-TERT-BUTYL-3-(2,4-DICHLOROPHENYL)ACRYLAMIDE]
inhibition of growth at 100 ppm [1]: 11% | inhibition of growth at 100 ppm [2]: 21% | inhibition of growth at 100 ppm [3]: 26% | inhibition of growth at 100 ppm [4]: 22%

CC(C)COC(=O)/C=C/c1ccccc1 [ISOBUTYL CINNAMATE]
inhibition of growth at 100 ppm [1]: 40% | inhibition of growth at 100 ppm [2]: 42% | inhibition of growth at 100 ppm [3]: 0% | inhibition of growth at 100 ppm [4]: 57%

Cc1ccc(OC(=O)/C=C/c2ccc(Cl)cc2)c(C(C)C)c1
inhibition of growth at 100 ppm [1]: 41% | inhibition of growth at 100 ppm [2]: 41% | inhibition of growth at 100 ppm [3]: 18% | inhibition of growth at 100 ppm [4]: 13%

Cc1ccc(OC(=O)/C=C/c2ccc(Cl)cc2Cl)c(C(C)C)c1
inhibition of growth at 100 ppm [1]: 32% | inhibition of growth at 100 ppm [2]: 67% | inhibition of growth at 100 ppm [3]: 0% | inhibition of growth at 100 ppm [4]: 15% | inhibition of growth at 10 ppm [5]: 21%

CC(C)OP(=O)(OC(C)C)SCc1ccccc1 [IPROBENFOS]
inhibition of growth at 100 ppm [2]: 100% | inhibition of growth at 100 ppm [4]: 89% | inhibition of growth at 10 ppm [5]: 69% | inhibition of growth at 10 ppm [6]: 42%

CCCOC/C(=N\c1ccc(Cl)cc1C(F)(F)F)n1ccnc1 [TRIFLUMIZOLE]
inhibition of growth at 100 ppm [2]: 100% | inhibition of growth at 100 ppm [4]: 94% | inhibition of growth at 10 ppm [5]: 64% | inhibition of growth at 10 ppm [6]: 71%

O=C(/C=C/c1ccccc1)NCc1ccccc1Cl [N-(2-CHLOROBENZYL)CINNAMAMIDE]
inhibition of growth at 100 ppm [1]: 70% | inhibition of growth at 100 ppm [2]: 41% | inhibition of growth at 100 ppm [3]: 88% | inhibition of growth at 100 ppm [4]: 23%

CC(C)c1ccc(/C=C/C(=O)NC(C)(C)C)cc1 [N-TERT-BUTYL-3-(4-ISOPROPYLPHENYL)ACRYLAMIDE]
inhibition of growth at 100 ppm [1]: 7% | inhibition of growth at 100 ppm [2]: 31% | inhibition of growth at 100 ppm [3]: 43% | inhibition of growth at 100 ppm [4]: 62% | inhibition of growth at 10 ppm [6]: 45%

Cc1cccc(C)c1NC(=O)/C=C/c1ccccc1
inhibition of growth at 100 ppm [1]: 0% | inhibition of growth at 100 ppm [2]: 13% | inhibition of growth at 100 ppm [3]: 0% | inhibition of growth at 100 ppm [4]: 31%

Source: ChEMBL document CHEMBL3046649, “Fungitoxic and Phytotoxic Activities of Cinnamic Acid Esters and Amides” (2000)
